{"source": "ChEMBL document CHEMBL3243982", "about": "“Synthesis of pyrimido[5,4-c]quinolines and related quinolines as potential antimalarials” (J Med Chem, 1978)", "key": {"Plasmodium berghei": {"tested_on": "Plasmodium berghei", "assay": "Antimalarial activity against blood-induced Plasmodium berghei infected in mouse at 640 mg/kg", "type": "functional, organism-based", "parameters": "dose 640 mg/kg"}, "Plasmodium gallinaceum": {"tested_on": "Plasmodium gallinaceum", "assay": "Antimalarial activity against Plasmodium gallinaceum at 320 mg/kg by sporozoite-induced chick test", "type": "functional, organism-based", "parameters": "dose 320 mg/kg"}}, "note": "The source made the active and inactive calls. No cut-off for these calls is given here.", "data": [{"smiles": "CCN1Cc2c(C)nc3ccc(C)cc3c2N(c2cccc(Cl)c2)C1", "values": [{"measurement": "Activity", "setting": "Plasmodium berghei", "result": "inactive"}]}, {"smiles": "CCNCc1c(C)[nH]c2ccc(C)cc2c1=O", "values": [{"measurement": "Activity", "setting": "Plasmodium berghei", "result": "inactive"}]}, {"smiles": "CCN1Cc2c(C)nc3ccc(OC)cc3c2N(c2cccc(Cl)c2)C1", "values": [{"measurement": "Activity", "setting": "Plasmodium berghei", "result": "inactive"}]}, {"smiles": "CCNCc1c(C)[nH]c2ccc(OC)cc2c1=O", "values": [{"measurement": "Activity", "setting": "Plasmodium berghei", "result": "inactive"}]}, {"smiles": "CCNCc1c(C)nc2ccc(OC)cc2c1Nc1cccc(Cl)c1", "values": [{"measurement": "Activity", "setting": "Plasmodium berghei", "result": "inactive"}]}, {"smiles": "CCN(CC)Cc1c(C)[nH]c2cc(Cl)ccc2c1=O", "values": [{"measurement": "Activity", "setting": "Plasmodium berghei", "result": "inactive"}]}, {"smiles": "CCN1Cc2c(/C=C/c3ccccc3)nc3ccc(OC)cc3c2N(c2cccc(Cl)c2)C1", "values": [{"measurement": "Activity", "setting": "Plasmodium berghei", "result": "inactive"}, {"measurement": "Activity", "setting": "Plasmodium gallinaceum", "result": "inactive"}]}]}
